According to US20130137701A1, “COMBINATION” (priority 2010, published 2013):
Where two headings read alike, the source gives them in different places. Values belong to the compound of their own block, whether it stands above or below them.

Experiments:
[1] = test system: HCC202; experiment: Cell growth inhibition assay (Cell Titer Glo); type: cell-based, Human; settings: HCC202, Breast, HER2+, PIK3CA E545K, 3 days; for IC50: read-out: Single Agent (IC50)
Method: (§1) All cells were cultured without lapatinib for a minimum of 72 hours prior to cell plating. Cells were assayed in a 96-well tissue culture plate (NUNC 136102) of RPMI medium containing 10
(§2) % FBS for all cells at 2,000 cells per well except KPL4, which were plated in DMEM containing 5% FBS at 500 cells per well. […] Cells were incubated in the presence of compounds for 3 days. ATP levels were determined by adding Cell Titer Glo® (Promega) according to the manufacturer's protocol. Briefly, Cell Titer Glo® was added each plate, incubated for 20 minutes then luminescent signal was read on the SpectraMax L plate reader with a 0.5 sec integration time.
(§3) Inhibition of cell growth was estimated after treatment with compound or combination of compounds for three days and comparing the signal to cells treated with vehicle (DMSO). Cell growth was calculated relative to vehicle (DMSO) treated control wells. Concentration of compound that inhibits 50% of control cell growth (IC50) was interpolated using nonlinear regression with the equation, y=(A+(B−A)/(1+(C/x)̂D)))), where A is the minimum response (ymin), B is the maximum response (ymax), C is the inflection point of the curve (EC50) and D is the Hill coefficient. […]

[2] = test system: ZR-75-1; experiment: Cell growth inhibition assay (Cell Titer Glo); type: cell-based, Human; settings: ZR-75-1, Breast, HER−, PIK3CA WT, 3 days, read-out: Single Agent (IC50)
Method: as §1, §2, §3

[3] = test system: MDA-MB-361; experiment: Cell growth inhibition assay (Cell Titer Glo); type: cell-based, Human; settings: MDA-MB-361 (resistant line), Breast, HER2+, PIK3CA E545K, 3 days; for IC50: Homo sapiens, 72 h, read-out: Single Agent (IC50)
Method: as §1, §2, §3

[4] = test system: UACC893; experiment: Cell growth inhibition assay (Cell Titer Glo); type: cell-based, Human; settings: UACC893, Breast, HER2+, PIK3CA H1047R, 3 days, read-out: Single Agent (IC50)
Method: as §1, §2, §3

[5] = test system: MDA-MB-453; experiment: Cell growth inhibition assay (Cell Titer Glo); type: cell-based, Human; settings: MDA-MB-453, Breast, HER2+, PIK3CA H1047R, 3 days; for IC50: Homo sapiens, 72 h, read-out: Single Agent (IC50)
Method: as §1, §2, §3

[6] = test system: CHL-1; experiment: Cell growth inhibition assay (Cell Titer Glo); type: cell-based, Human; settings: CHL-1, Melanoma, HER−, PIK3CA WT, 3 days, read-out: Single Agent (IC50)
Method: as §1, §2, §3

[7] = test system: BT-474; experiment: Cell growth inhibition assay (Cell Titer Glo); type: cell-based, Human; settings: BT-474, Breast, HER2+, PIK3CA K111N, 3 days, read-out: Single Agent (IC50)
Method: as §1, §2, §3

[8] = test system: KPL4; experiment: Cell growth inhibition assay (Cell Titer Glo); type: cell-based, Human; settings: KPL4, Breast, HER2+, PIK3CA H1047R, 3 days, read-out: Single Agent (IC50)
Method: as §1, §2, §3

[9] = test system: SK-BR-3-W13; experiment: Cell growth inhibition assay (Cell Titer Glo); type: cell-based; settings: Homo sapiens, 72 h; SK-BR-3-W13 (resistant line), Breast, HER2+, PIK3CA WT; 3 days; read-out: Single Agent (IC50)
Method: (§4) JIMT-1 is a line derived from a patient clinically resistant to trastuzumab (Herceptin®). SK-BR-3-W13 is a single cell clone isolated by a cloning cylinder after a single treatment of SK-BR-3 cells with 0.5 μM lapatinib. BT-474-J4 is a single cell clone derived from a culture of BT-474 cells that were selected to grow in lapatinib to a concentration of 3 μM.
as §1, §2, §3

[10] = test system: JIMT-1; experiment: Cell growth inhibition assay (Cell Titer Glo); type: cell-based, Human; settings: JIMT-1 (resistant line), Breast, HER2+, PIK3CA WT, 3 days, read-out: Single Agent (IC50)
Method: as §4, §1, §2, §3

[11] = test system: caspase 3/7 activity in BT474 cells; experiment: Cell apoptosis assay, caspase-3/7 activation (Caspase Glo 3/7); type: cell-based, Human; settings: 24 h post treatment
Method: as §4
(§5) For investigation of the induction of apoptosis, cells were plated at 5,000 cells per well in a 96-well tissue culture plate and allowed to attach for approximately 24 hours. Cells were then treated with compounds as described above. 24 hours after compound treatment, the levels of active caspase 3 and caspase 7 were determined with the Caspase Glo™ 3/7 (Promega, cat G8093) according to the instructions provided by the manufacturer. 48 hours after treatment with compound, levels of apoptosis were estimated using the Roche Cell Death ELISA (Cat. No. 11 774 425 001) following the instructions provided by the manufacturer.

[12] = test system: caspase 3/7 activity in HCC1419 cells; experiment: as above; type: cell-based, Human; settings: 24 h post treatment
Method: as §4, §5

[13] = test system: caspase 3/7 activity in UACC893 cells; experiment: as above; type: cell-based, Human; settings: 24 h post treatment
Method: as §4, §5

[14] = test system: SK-BR-3; experiment: Cell growth inhibition assay (Cell Titer Glo); type: cell-based, Human; settings: SK-BR-3, Breast, HER2+, PIK3CA WT, 3 days, read-out: Single Agent (IC50)
Method: as §1, §2, §3

[15] = test system: MDA-MB-175-VII; experiment: Cell growth inhibition assay (Cell Titer Glo); type: cell-based, Human; settings: Breast, HER−, PIK3CA WT, 3 days, read-out: Single Agent (IC50)
Method: as §1, §2, §3

[16] = test system: HCC1937; experiment: Cell growth inhibition assay (Cell Titer Glo); type: cell-based, Human; settings: HCC1937, Breast, HER−, PIK3CA WT; 3 days; read-out: Single Agent (IC50)
Method: as §1, §2, §3

[17] = test system: BT-474-J4; experiment: Cell growth inhibition assay (Cell Titer Glo); type: cell-based; settings: Homo sapiens, 72 h, BT-474-J4 (resistant line), Breast, HER2+, PIK3CA K111N; 3 days; read-out: Single Agent (IC50)
Method: as §4, §1, §2, §3

IC50 [1]: 206 nM
IC50 ([1]; Homo sapiens, HCC202, 72 h): 200 nM
IC50 [3]: 9 nM
IC50 [5]: 15 nM
IC50 [7]: 28 nM
IC50 ([7]; Homo sapiens, BT-474, 72 h): < 50 nM
IC50 [9]: 167 nM
SMILES: COc1ncc(-c2ccc3nccc(-c4ccnnc4)c3c2)cc1NS(=O)(=O)c1ccc(F)cc1F [Compound B, 2,4-difluoro-N-{2-(methyloxy)-5-[4-(4-pyridazinyl)-6-quinolinyl]-3-pyridinyl}benzenesulfonamide]
IC50 ([2]; Homo sapiens, ZR-75-1, 72 h): 10 to 1300 nM
IC50 [2]: 12 nM
IC50 ([4]; Homo sapiens, UACC-893, 72 h): < 5 nM
IC50 [4]: 5 nM
IC50 [6]: 38 nM
IC50 ([6]; Homo sapiens, CHL-1, 72 h): < 40 nM
IC50 ([8]; Homo sapiens, KPL4, 72 h): < 5 nM
IC50 [8]: 3 nM
IC50 ([10]; Homo sapiens, JIMT-1, 72 h): < 30 nM
IC50 [10]: 28 nM
caspase 3/7 activity [11]: increased caspase 3/7 activity
caspase 3/7 activity [12]: slight increase in caspase 3/7 activity
caspase 3/7 activity [13]: increased caspase 3/7 activity

Single Agent (IC50, μM) [1]: less sensitive
IC50 ([1]; Homo sapiens, HCC202, 72 h): 4630 nM
IC50 ([14]; Homo sapiens, SK-BR-3, 72 h): < 200 nM
IC50 ([14]; ditosylate monohydrate): 312 nM
IC50 [3]: > 10000 nM
Single Agent (IC50, μM) [3]: less sensitive
IC50 ([15]; ditosylate monohydrate): 106 nM
IC50 ([15]; Homo sapiens, 72 h): < 200 nM
IC50 [5]: 2470 nM
Single Agent (IC50, μM) [5]: less sensitive
IC50 [16]: > 1000 nM
IC50 ([7]; ditosylate monohydrate): 241 nM
IC50 ([7]; Homo sapiens, BT-474, 72 h): < 200 nM
IC50 [17]: 3540 nM
IC50 [9]: 7110 nM
SMILES: CS(=O)(=O)CCNCc1ccc(-c2ccc3ncnc(Nc4ccc(OCc5cccc(F)c5)c(Cl)c4)c3c2)o1 [Compound A, N-{3-Chloro-4-[(3-fluorobenzyl)oxy]phenyl}-6-[5-({[2-(methanesulphonyl)ethyl]amino}methyl)-2-furyl]-4-quinazolinamine ditosylate monohydrate]
IC50 ([4]; Homo sapiens, UACC-893, 72 h): < 1000 nM
IC50 ([4]; ditosylate monohydrate): 1070 nM
IC50 ([10]; Homo sapiens, JIMT-1, 72 h): 9620 nM
caspase 3/7 activity [11]: increased caspase 3/7 activity
caspase 3/7 activity [12]: slight increase in caspase 3/7 activity
caspase 3/7 activity [13]: increased caspase 3/7 activity
